# Reference: patent publication US20100173983A1, “METHOD FOR INDUCING AUTOPHAGY” (priority 2007, published 2010)
# Legend:
# Akt = test: Western blot of R-182 lysates, Akt; assay type: cell-based, Human; settings: R-182 cells, 5 μg/ml
# Description: FIG. 10. The expression of upstream regulators of autophagy are also modulated in response to Cpd 1. […] B-actin was included as a loading control. B, Proposed mechanism of Cpd 1 induced autophagic cell death.
# After treatment with Cpd 1, protein was extracted from cells and measured as previously described (Kamsteeg et al., 2003). For separation of the cytoplasmic and mitochondrial fractions, cell pellets were processed using the ApoAlert Cell Fractionation kit (Promega) according to the manufacturer's instructions. 20 μg protein was denatured in sample buffer (2.5% sodium dodecyl sulfate [SDS], 10% glycerol, 5% β-mercapto-ethanol, 0.15 M Tris, pH 6.8, and 0.01% bromophenol blue) and subjected to 12% SDS polyacrylamide gel electrophoresis (SDS-PAGE) as previously described (Kamsteeg et al., 2003). The following antibodies and concentrations were used: mouse anti-Bax (BD Biosciences, 1:500), rabbit anti-actin (Sigma, 1:10,000), rabbit anti-cytochrome c (BD Biosciences, 1:1,000), mouse anti-Cox-4 (BD Biosciences, 1:500), rabbit anti-beclin 1 (Santa Cruz Biotechnology, 1:600), mouse anti LC3 (Nanotools, 1:500). […] Proteins were observed using enhanced chemiluminescence (Pierce, Rockford, Ill.).
# Beclin 1 = test: Western blot of R-182 mitochondrial extracts, Beclin 1; assay type: cell-based, Human; settings: R-182 cells, 5 μg/ml over 24 hr
# Description: (§1) FIG. 8. Molecular evidence of autophagic cell death in R-182 ovarian cancer cells induced by Cpd 1. […] B, Beclin 1 binds to Bcl-2. Immunoprecipitation study using mitochondrial preparations of cells pre-treated with Cpd 1 as stated in A, and subjected to beclin 1 immunoprecitation. Immunoprecipitated fractions were washed in PBS, subjected to SDS-PAGE, blotted and then probed with a mouse anti-Bcl-2 antibody. Actin and Topo-1 were used as loading control. C, Depolarized cells resulting from over-expression of Bax and Beclin 1 following administration of Cpd 1. Cells were treated with Cpd 1 as described in A, pelleted and washed in HBSS and the cell pellet resuspended in the reaction buffer for JC-1 (Biovision, Inc. MitoCapture™ K250-100). HBSS-washed cells were analysed by flow cytometry (λexcit=488 nm and (λemit=530 nm for green fluorescence (depolarized) or 590 nm for red fluorescence (polarized). 10,000 gated events were measured with a BD FACScalibur. Results were expressed as mean±standard deviation (n=3).
# (§2) After treatment with Cpd 1, protein was extracted from cells and measured as previously described (Kamsteeg et al., 2003). For separation of the cytoplasmic and mitochondrial fractions, cell pellets were processed using the ApoAlert Cell Fractionation kit (Promega) according to the manufacturer's instructions. […]
# caspase 3 = test: Caspase-Glo 3/7 assay in R182 cells; assay type: cell-based, Human; settings: R182 ovarian cancer explants; dose response and duration of exposure (5 μg/ml, 0-25 hr)
# Protocol: FIG. 2. Comparative induction of caspase 3 in R182 ovarian cancer explants by Cpd 1 and dehydroequol using either dose response (A) or duration of exposure (B). Caspase 3 activity was assessed using the Caspase-Glo 3/7 assays.
# For caspase activity assays, 10 μg of protein in 50 μL total volume was mixed with 50 μL of equilibrated Caspase-Glo 3/7, 8, or 9 reagents (Promega). After incubating at room temperature for 1 hour, luminescence was measured using TD 20/20 Luminometer (Turner Designs, Sunnyvale, Calif.). Blank values were subtracted and fold-increase in activity was calculated based on activity measured from untreated cells. Each sample was measured in triplicate.
# ovarian cancer cells = test: Cell viability in presence of pan caspase inhibitor ZVAD-FMK; assay type: cell-based, Human; settings: ZVAD-FMK 0.5 μg/ml
# Protocol: FIG. 5. Comparative cell viability plots of dehydroequol (A) and Cpd 1 (B) treated cells in the presence and absence of the pan caspase inhibitor ZVAD-FMK (0.5 μg/ml).
# (§3) Cell viability was evaluated using the CellTiter 96 Aqueous One Solution Cell Proliferation Assay (Promega, Madison, Wis.) according to the manufacturer's instructions. The values from the treated cells were compared with the values generated from the untreated cells and reported as percent viability. Each experiment was performed in triplicate.
# Bax = test: Western blot of R-182 mitochondrial extracts, Bax; assay type: cell-based, Human; settings: R-182 cells, 5 μg/ml over 24 hr
# Description: as §1, §2
# [1] = tested on: chemoresistant epithelial ovarian cancer (EOC) xenografts; test: EOC xenograft in SCID mice, tumour growth; assay type: in vivo; settings: increasing doses, intraperitoneal injection; data not shown
# Protocol: In vivo studies using tumour-bearing mice were conducted to further confirm that Cpd 1 induces programmed cell death via an autophagic process. SCID mice bearing chemoresistant epithelial ovarian cancer (EOC) xenografts derived from a primary cell culture of a patient's ascites were administered with increasing doses of Cpd 1 by intraperotineal injection resulting in reductions in both tumor volume and tumor weight (data not shown). Representative tumours excised from these mice and tumour-bearing mice administered vehicle control were then fixed, sectioned and subjected to immunohistopathology analysis using an α-enodonuclease G directed monoclonal antibody. Tumor samples were blocked with either 10% horse or goat serum in PBS for 1 hour at room temperature. Following three washes with PBS, samples were incubated overnight at 4° C. with either the anti-EndoG (LifeSpan Bioscience) antibody or mouse IgG1 isotype as negative controls. After three washes with PBS, specific staining was detected by incubating with a peroxidase-conjugated horse anti-mouse antibody (1:1000 dilution) for 1 hour followed by a five-minute incubation with DAB substrate (Vector Laboratories). Tissue sections were then counterstained with haematoxylin (Sigma Chemical Co.) before dehydration with ethanol and Histosolve (Shandon Inc., Pittsburgh, Pa.). […]
# [2] = tested on: OSE (normal ovarian surface epithelial cells); test: Cell viability, CellTiter 96 assay, normal cells; assay type: cell-based, Human; settings: concentrations up to 10 μg/ml, 24 hr exposure
# Protocol: FIG. 1. Comparative cytotoxicity of dehydroequol and Compound I as described herein (Cpd 1) against normal and ovarian cancer cells: CP70 (cell line), R179, R182, R585 (primary ovarian cancer explants) and OSE (normal ovarian surface epithelial cells). […] Both compounds were tested at concentrations up to 10 μg/ml and exposed to cells for 24 hr.
# Human EOC cell lines A2780, CP70, and OSE were propagated in RPMI plus 10% fetal bovine serum (FBS) (Gemini Bio-Products, Woodland, Calif.) at 37° C. in a 5% CO2 atmosphere. Primary EOC cells (R179, R182, R585) were isolated from malignant ovarian ascites and cultured as previously described (Kamsteeg et al., 2003). Dehydroequol and Compound 1 (Cpd 1) were obtained from Novogen (Australia). All other reagents were purchased from Sigma Chemical (St. Louis, Mo.). The pan caspase inhibitor Z-VAD-FMK was obtained from R&D Systems (Minneapolis, Minn.).
# as §3
compound,measurement,setting,value
"COc1ccc([C@H]2c3ccc(O)c(C)c3OC[C@H]2c2ccc(O)cc2)cc1 (stereo in doubt) [Cpd 1, 3-(4-hydroxyphenyl)-4-(4-methoxyphenyl)-8-methylchroman-7-ol]",Akt phosphorylation (p-Akt),Akt,reduced up to 120 minutes post exposure
same,total Akt (t-Akt) expression,Akt,remained unchanged
same,mitochondrial content of beclin-1,Beclin 1,transiently increased
same,caspase 3 activity,caspase 3,did not induce caspase 3 activity
same,cell death in the presence of pan caspase inhibitor ZVAD-FMK,ovarian cancer cells,cell death proceeded
same,expression of Bax in mitochondrial extracts,Bax,markedly upregulated over time
same,tumor volume,[1],reductions
same,tumor weight,[1],reductions
same,toxicity against normal OSE cells,[2],some toxicity
